Like-named read-outs stand apart in the source and are kept apart here.
Columns and labels:
[1] = test system: HIV; test: Inhibition of HIV infection (Table 1); format: cell-based, human immunodeficiency virus
[2] = test system: HSV; test: Inhibition of HSV infection (Table 1); format: cell-based, herpes simplex virus; conditions: for IC50: read-out: IC50 ± STD (nM) (N = x) HSV
[3] = test system: NDV; test: microbe, parasite or virus in culture; format: cell-based, Newcastle disease virus; conditions: for IC50: read-out: IC50 ± STD (nM) (N = x) NDV
[4] = Absorption spectra of compounds in DMSO; format: physicochemical; conditions: for Abs Max: 100 μM in DMSO; for Relative integrated area from 400 to 700 nm: area under absorption curve, JL001 = 100
[5] = test system: Hela cells; test: Cytotoxicity by MTT assay in dark or under light; format: cell-based; conditions: Homo sapiens, exposed for 1 hour to light, MTT 24 hours later, read-out: concentration triggering death of 50% of treated cells
[6] = test system: lipid-enveloped viruses; test: organism not typed; format: cell-based; conditions: read-out: IC50 inhibition of infection of lipid-enveloped viruses
[7] = test system: cytomegalovirus (CMV, herpesvirus); format: cell-based
[8] = test system: Semliki forest virus (SFV, alphavirus); format: cell-based
[9] = Clinical observations after single dose in PK study; conditions: for toxicity in vivo compared to the rhodanine derivatives: gavage, intravenous or intraperitoneal administration in mice
[10] = Pharmacokinetic profile after single po, ip or iv administration; conditions: for bioavailability: female, Balb/c, mouse, plasma
[11] = KT rate constant (Table 1); format: physicochemical; conditions: values are KT × 10^−7
[12] = test system: Toxoplasma gondii; test: Toxoplasma gondii attachment and invasion of HFFs; format: cell-based; conditions: 10 μM, normalized to DMSO control, preliminary
[13] = test system: HIV (IIIB); test: HIV inactivation in packed red blood cells, TZM-BL luciferase readout; format: cell-based, human immunodeficiency virus; conditions: 100 μM, 1 h white light, hematocrit 80%
[14] = test system: lipid-enveloped viruses; conditions: reference [1], cited from earlier work
[15] = number of experiments in parentheses
[16] = Human immunodeficiency virus 1, number of experiments in parentheses, read-out: IC50 ± STD (nM) (N = x) HIV

Question: For `CCN1C(=O)S/C(=C\c2ccc(-c3ccccc3)o2)C1=O` [JL025, reference compound], which “IC50 ± STD (nM) (N = x) HIV” value [1, 15] is on record?
Answer: Not active (4)

Question: What about the “IC50 ± STD (nM) (N = x) HSV” value [2, 15] of the same compound?
Answer: Not active (1)

Question: And the “IC50 ± STD (nM) (N = x) NDV” value [3]?
Answer: Not active (2)

Question: And the “Abs Max” value [4]?
Answer: 405 nm

Question: Which IC50 [1, 16] does the source give for `CCN1C(=O)/C(=C/c2ccc(-c3ccccc3)o2)OC1=S` [JL101, (Z)-3-ethyl-5-((5-phenylfuran-2-yl)methylene)-2-thioxooxazolidine-4-one] here?
Answer: > 1000 nM

Question: And the IC50 ([3]; avian paramyxovirus 1, Vero)?
Answer: > 1000 nM

Question: Which “EC50 fold lower than LJ001's” value [3] does the source give for `CCN1C(=S)O/C(=C\c2ccc(-c3ccccc3)o2)C1=S` [JL102, (Z)-3-ethyl-5-((5-phenylfuran-2-yl)methylene)oxazolidine-2,4-dithione] here?
Answer: about 10 fold

Question: And the EC50 [5]?
Answer: ~0.4 µM

Question: What about the IC50 [6] of the same compound?
Answer: ~0.04 µM

Question: What about the “inhibition of CMV infection” value [7] of the same compound?
Answer: inhibit the infection

Question: And the “inhibition of SFV infection” value [8]?
Answer: inhibit the infection

Question: What about the clinical observations ([9]; 10 mg/kg ip single dose) of the same compound?
Answer: appeared normal

Question: And the “toxicity in vivo compared to the rhodanine derivatives” value [9]?
Answer: less toxicity

Question: What about the bioavailability ([10]; ip, 10 mg/kg) of the same compound?
Answer: ~50%

Question: And the bioavailability ([10]; po, 100 mg/kg)?
Answer: 3.1 to 105%

Question: For `CCN1C(=S)O/C(=C\c2ccc(-c3ccccc3OC)o2)C1=S` [JL103, (Z)-3-ethyl-5-((5-(2-methoxyphenyl)furan-2-yl)methylene)oxazolidine-2,4-dithione], which IC50 [1, 16] is on record?
Answer: 3 nM

Question: What about the IC50 [2, 15] of the same compound?
Answer: 2.3 ± 2.7 nM

Question: What about the “EC50 fold lower than compound 1's” value [3] of the same compound?
Answer: about 10 fold

Question: And the EC90 ([3]; avian paramyxovirus 1, Vero, read-out: EC90 antiviral activity on NDV)?
Answer: ~0.015 µM

Question: And the IC50 ([3]; avian paramyxovirus 1, Vero)?
Answer: 7 nM

Question: What about the absorption peak [4] of the same compound?
Answer: about 500 nm

Question: What about the “Abs Max” value [4] of the same compound?
Answer: 516 nm

Question: What about the “Relative integrated area from 400 to 700 nm” value [4] of the same compound?
Answer: 153

Question: And the “light absorbed relative to LJ001 (integrated area 400-700 nm)” value ([4]; times more than LJ001)?
Answer: 1.53 times

Question: What about the “KT × 10^−7” value [11] of the same compound?
Answer: 7.8 ± 0.6 M^−1s^−1

Question: What about the IC50 [6] of the same compound?
Answer: ~0.005 µM

Question: What about the “inhibition of CMV infection” value [7] of the same compound?
Answer: inhibit the infection

Question: What about the “inhibition of SFV infection” value [8] of the same compound?
Answer: inhibit the infection

Question: And the “inhibition of parasite attachment and invasion” value [12]?
Answer: inhibited parasite attachment and invasion

Question: And the clinical observations ([9]; 10 mg/kg ip single dose)?
Answer: appeared normal

Question: What about the “toxicity in vivo compared to the rhodanine derivatives” value [9] of the same compound?
Answer: less toxicity

Question: And the bioavailability ([10]; ip, 10 mg/kg)?
Answer: ~50%

Question: What about the bioavailability ([10]; po, 100 mg/kg) of the same compound?
Answer: 3.1 to 105%

Question: Which “IC50 ± STD (nM) (N = x) HIV” value [1, 15] does the source give for `CCN1C(=O)/C(=C/c2ccc(-c3ccccc3)o2)NC1=S` [JL104, (Z)-3-ethyl-5-((5-phenylfuran-2-yl)methylene)-2-thioxoimidazolidin-4-one] here?
Answer: Not active

Question: What about the IC50 [2, 15] of the same compound?
Answer: > 500000 nM

Question: What about the IC50 ([3]; avian paramyxovirus 1, Vero) of the same compound?
Answer: > 500000 nM

Question: What does the source list for `CCN1C(=S)N/C(=C\c2ccc(-c3ccccc3)o2)C1=S` [JL105, (Z)-3-ethyl-5-((5-phenylfuran-2-yl)methylene)imidazolidine-2,4-dithione]?
Answer: IC50 ([3]; avian paramyxovirus 1, Vero): > 100000 nM; Abs Max [4]: 521 nm

Question: What does the source list for `CCN1C(=S)OC(Cc2ccc(-c3ccccc3)o2)C1=S` (stereo not shown) [JL107]?
Answer: IC50 ([3]; avian paramyxovirus 1, Vero): 928 nM; inhibition of parasite attachment and invasion [12]: most potent inhibition; inhibition of parasite attachment and invasion ([12]; listed as 107): inhibited parasite attachment and invasion

Question: Which results are given for `CCN1C(=S)O/C(=C\c2ccc(-c3c(OC)cccc3OC)o2)C1=S` [JL111, (Z)-3-Ethyl-5-(5-(2,6-dimethoxyphenyl)-furan-2-ylmethylene)oxazolidine-2,4-dithione]?
Answer: IC50 ([3]; avian paramyxovirus 1, Vero): 12 nM; Abs Max [4]: 499 nm

Question: For `CCN1C(=S)O/C(=C\c2cc3ccccc3o2)C1=S` [JL113, (Z)-5-(benzofuran-2-ylmethylene)-3-ethyloxazolidine-2,4-dithione], which IC50 ([3]; avian paramyxovirus 1, Vero) is on record?
Answer: 865 nM

Question: Which IC50 [2, 15] does the source give for `CCN1C(=S)O/C(=C\c2ccc(-c3cccc(OC)c3)o2)C1=S` [JL117, (Z)-3-Ethyl-5-(5-(3-methoxyphenyl)-furan-2-ylmethylene)oxazolidine-2,4-dithione] here?
Answer: 20 nM

Question: What about the IC50 ([3]; avian paramyxovirus 1, Vero) of the same compound?
Answer: 5 nM

Question: What about the “Abs Max” value [4] of the same compound?
Answer: 504 nm

Question: For `CCN1C(=S)O/C(=C\c2ccc(-c3ccc(OC)cc3)n2C)C1=S` [JL119, (Z)-3-Ethyl-5-((5-(4-methoxyphenyl)-1-methyl-1H-pyrrole-2-yl)methylene)oxazolidine-2,4-dithione], which IC50 ([3]; avian paramyxovirus 1, Vero) is on record?
Answer: 6 nM

Question: And the “Abs Max” value [4]?
Answer: 551 nm

Question: What does the source list for `CCN1C(=O)O/C(=C\c2ccc(-c3ccccc3)o2)C1=O` [JL121, (Z)-3-ethyl-5-((5-phenylfuran-2-yl)methylene)oxazolidine-2,4-dione]?
Answer: IC50 ± STD (nM) (N = x) HSV [2, 15]: Not active (1); IC50 ([3]; avian paramyxovirus 1, Vero): > 500000 nM; KT × 10^−7 [11]: 2.5 ± 0.2 M^−1s^−1

Question: What does the source list for `CCN1C(=S)O/C(=C\c2ccc(-c3c(OC)cc(OC)cc3OC)o2)C1=S` [JL122, (Z)-3-Ethyl-5-(5-(2,4,6-tiimethoxyphenyl)-furan-2-ylmethylene)oxazolidine-2,4-dithione]?
Answer: IC50 [2, 15]: 3 ± 1 nM; IC50 ([3]; avian paramyxovirus 1, Vero): 1 nM; Abs Max [4]: 547 nm; HIV inactivation in packed RBC (luciferase activity, RLU) [13]: dramatically decrease the luciferase activity to near-background levels

Question: With `CCN1C(=S)O/C(=C\c2ccc(-c3ccc(N(C)C)cc3)n2C)C1=S` [JL123] as the compound, how does the IC50 [2, 15] read?
Answer: 75 ± 45 nM

Question: What about the IC50 ([3]; avian paramyxovirus 1, Vero) of the same compound?
Answer: 49 nM

Question: And the “Abs Max” value [4]?
Answer: 593 nm

Question: Which IC50 ([1]; Human immunodeficiency virus 1, read-out: IC50 ± STD (nM) (N = x) HIV) does the source give for `C=CCN1C(=O)/C(=C/c2ccc(-c3ccccc3)o2)SC1=S` [LJ001, reference compound] here?
Answer: 183 ± 272 nM

Question: What about the IC50 [2] of the same compound?
Answer: 35 ± 48 nM

Question: What about the IC50 ([3]; avian paramyxovirus 1, Vero) of the same compound?
Answer: 207 nM

Question: What about the absorption peak [4] of the same compound?
Answer: about 440 nm

Question: And the “Abs Max” value [4]?
Answer: 457 nm

Question: And the “Relative integrated area from 400 to 700 nm” value [4]?
Answer: 100

Question: What about the “KT × 10^−7” value [11] of the same compound?
Answer: 1.0 ± 0.1 M^−1s^−1

Question: What about the “HIV inactivation in packed RBC (luciferase activity, RLU)” value [13] of the same compound?
Answer: unable to inactivate HIV

Question: And the “inhibition of parasite attachment and invasion” value [12]?
Answer: highly effective

Question: And the “IC95 viral infection common for all viruses tested” value [14]?
Answer: ~10 µM

Question: What about the IC50 ([14]; read-out: IC50 viral infection common for all viruses tested) of the same compound?
Answer: ~1 µM

Question: What about the clinical observations ([9]; 5 mg/kg ip single dose) of the same compound?
Answer: appeared normal

Question: And the clinical observations ([9]; 10 mg/kg ip single dose)?
Answer: 2 were sacrificed in moribund condition and 1 was found dead

Question: And the exposure ([10]; 10 mg/kg iv, 5 mg/kg ip, 10 and 100 mg/kg po)?
Answer: minimal exposure

Question: And the elimination ([10]; mice, single dose)?
Answer: ~700 mL/min/kg

Question: And the half-life ([10]; mice, single dose)?
Answer: 12 min

Question: For `Cc1c(C)c2c(c(C)c1O)CC[C@@](C)(CCC[C@H](C)CCC[C@H](C)CCCC(C)C)O2` [alpha-tocopherol, reference compound], which “effect of antioxidant on antiviral activity of JL103” value [3] is on record?
Answer: blocks the antiviral activity

— patent US9139575B2, “Broad spectrum antiviral and antiparasitic agents” (priority 2010, dated 2015)
